{"source": "paper PMC10066322", "about": "(Scientific Reports, 2023)", "key": {"[1]": {"molecular_target": "T1, PARN1-430 (Homo sapiens, UniProt O95453)", "T1 construct": "expression of the C-terminal truncated protein (1-430 aa of PARN) was soluble; His tag (from the pCold I vector); made in house; host or cells: E. coli Rosetta 2 DE", "T1 sequence (O95453 1-430)": "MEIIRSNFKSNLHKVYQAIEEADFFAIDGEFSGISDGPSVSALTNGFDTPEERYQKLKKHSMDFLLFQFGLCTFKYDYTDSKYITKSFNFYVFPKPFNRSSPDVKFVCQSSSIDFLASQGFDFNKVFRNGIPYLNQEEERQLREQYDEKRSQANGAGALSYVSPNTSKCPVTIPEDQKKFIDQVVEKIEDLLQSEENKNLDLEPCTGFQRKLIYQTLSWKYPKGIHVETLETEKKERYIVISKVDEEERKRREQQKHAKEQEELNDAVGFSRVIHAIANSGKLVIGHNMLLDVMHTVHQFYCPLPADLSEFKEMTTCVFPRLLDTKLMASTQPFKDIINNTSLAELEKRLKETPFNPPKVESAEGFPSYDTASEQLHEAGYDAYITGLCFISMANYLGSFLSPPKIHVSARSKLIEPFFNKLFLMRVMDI", "assay": "Gel assay of poly(A) RNA shortening by PARN1-430", "assay_type": "biochemical", "experimental": "PARN1-430 was incubated with a fluorescently labeled RNA with a CCUUUCC sequence followed by a 9 nucleotide-long poly(A) tail and the reaction product was visualized on denaturing acrylamide gels. We observed that PARN removed the 3′ oligo(A) tail from the RNA substrate (Fig. 2c and d). […] Moreover, we observed that PARN is inhibited when treated with adenosine monophosphate (AMP), as has been reported previously.\n1 µL of protein (73 nM as final concentration) (stock protein is diluted in 1× lysis buffer (HEPES KOH, pH 7.4, 30 mM, KOAc 100 mM, and Mg(Oac)2 2 mM) was added to 4 µL of 2.5× reaction buffer (Tris–HCl pH 7.4, 10 mM, KCl 50 mM, MgCl2 5 mM). If drug was added, reaction was pre-incubated with drugs for 10 min before 5 µL of RNA (5 µM as final concentration) was added. The reaction was incubated at 37 °C for 20 min. After the incubation, the reaction was either diluted with 2× loading buffer and heated to 95 °C for 5 min for gel or quenched by adding 10 µL of quencher solution (30 µM of 3′-BHQ labeled quench DNA in 1% SDS). Quenched reaction was incubated at room temperature for 10–60 min and fluorescence was measured using Fluorescein wavelength measurement.\n15% TBE-Urea gel (Thermo Fisher Scientific) was prerun at 20W for 30 min. RNAs from the reaction was loaded into 15% TBE gels and run at 300 V for 35 min. The gel was visualized using iBright (Invitrogen FL1500)."}, "[2]": {"molecular_target": "T1, PARN1-430", "assay": "Inhibition fluorescence assay (FAM-RNA / BHQ quencher deadenylase assay)", "assay_type": "biochemical", "experimental": "To easily screen compounds for inhibition of PARN activity, we developed an assay in which fluorescence was used as the readout for monitoring PARN1-430’s activity (Fig. 3a). This assay was modeled on a similar assay developed for Caf1/CNOT7 deadenylase. In this assay, PARN1-430 was incubated with a 5′-fluorescently labeled oligoadenylated RNA. In the absence of deadenylation, this substrate RNA can effectively hybridize to a complementary DNA oligonucleotide with a quencher on its 3′ end leading to a loss of fluorescence (Fig. 3a). When the RNA substrate is deadenylated, the quenching oligonucleotide is no longer able to stably hybridize leading to an increase in fluorescence in the reaction.\nFigure 3 Developing a fluorescence assay for PARN inhibition. (a) Cartoon depicting the inhibition fluorescence assay. Schematic diagram of the fluorescence-based deadenylase assay. The assay is based on a 5′ FAM-labelled RNA oligonucleotide substrate. After incubation of the substrate in the presence of PARN1-430, the reaction is stopped and a 3′ BHQ-labelled DNA oligonucleotide probe complementary to the RNA substrate is added. The fluorescence of intact substrate is quenched upon probe hybridization because of the proximity of the BHQ […]. In contrast, the BHQ-labelled probe cannot hybridize to the FAM-labelled reaction product allowing detection of FAM fluorescence. […] 2-way ANOVA, multiple comparisons test, average ± SD, n = 3 replicates. *P < 0.05, **P < 0.005, ***P < 0.001, ****P < 0.0001, n.s. was not indicated. […] Dotted-line represents RNA and RNA + Quencher data. One-way ANOVA, multiple comparisons test, average ± SD, n ≥ 3 replicates. *P < 0.05, **P < 0.005, ***P < 0.001, ****P < 0.0001, n.s. was not indicated. (d) PARN1-430 and PARNmut enzymatic activity measured at different time points. […] Dotted-line represents RNA and RNA + Quencher data. 2-way ANOVA, multiple comparisons test, average ± SD, n = 3 replicates. *P < 0.05, **P < 0.005, ***P < 0.001, ****P < 0.0001, n.s. was not indicated.\nQuenched reaction was incubated at room temperature for 10–60 min and fluorescence was measured using Fluorescein wavelength measurement."}}, "data": [{"smiles": "Cc1ccc(Nc2ncc3c(n2)N(C)C(=O)N(c2cc(NC(=O)c4cccc(C(F)(F)F)c4)ccc2C)C3)cn1", "note": "[GNF-7]", "values": [{"measurement": "inhibitory effect on PARN1-430, gel assay", "setting": "[1]", "value": "most effective PARN1-430 inhibitor"}, {"measurement": "IC50", "setting": "[2]; GNF-7 on PARN1-430, 10 min pre-treatment, non-linear fit", "value": "35 ± 15", "unit": "µM"}, {"measurement": "inhibitory effect on PARN1-430, fluorescence assay", "setting": "[2]; among 15 docking compounds tested", "value": "strongest inhibitory effect"}, {"measurement": "PARN inhibitor in vitro", "setting": "[2]; computational docking compounds, fluorescence assay and gels, PARN1-430 pretreated with drug 10 min", "value": "Yes"}]}]}
